Earlier results, collected in patent publication US20170056332A1, “HEMORRHOID PREPARATION AND SHEETS” (C.B. Fleet Company, Incorporated, priority 2015, published 2017).

Settings: in the presence of menthol; Obata et al. 1990

percutaneous absorption of hydrophilic diclofenac sodium: substantially enhanced
SMILES: CC1CCC(C(C)C)C(O)C1 (stereo not shown) [Menthol]
